Data on nine molecules can be found in patent US20230148070A1, “AMINO ACID DERIVATIVES AND THEIR USE AS FLAVOR MODIFIERS” (Firmenich SA, priority 2020, published 2023).

Test [1] is described as follows: Sensory Testing 1: Savory Model (trained panel, umami and saltiness). The format is in vivo. The note with it: 10 ppm; panel of 20-22 trained panelists; score on scale -5 (strong masking) to 5 (strong enhancing), 0 = reference water solution with 0.25% NaCl and 0.05% MSG. As for the experimental part:
Each of Compound 101, Compound 102, Compound 103, Compound 104, Compound 105, Compound 106, Compound 107, Compound 108 and Compound 109 was tested for taste properties, particularly umami and saltiness. A panel of 20-22 trained panelists evaluated the samples of each test compound at 10 ppm for umami taste properties and saltiness taste properties, and scored the solutions on a scale ranging from −5 to 5 (with −5 denoting a strong masking effect, and 5 denoting a strong enhancing effect, and 0 representing the intensity of a reference water solution containing 0.25% sodium chloride (NaCl) and 0.05% monosodium glutamate (MSG), respectively).

The nature of test [2]: Sensory Testing 2: Chicken Soup (expert panel, salt, umami, meaty, kokumi). The note with it: 10 ppm, panel of 8 experts, score on scale -5 to 5, 0 = reference water solution with 1.26% Chicken base, 0.7% NaCl, 0.04% MSG; for Mouth-coating / Round / Thick: kokumi. The format is in vivo. The method, then:
Each of Compound 103, Compound 104 and Compound 109 was tested for flavor, taste and mouthfeel properties, particularly kokumi. A panel of 8 experts evaluated the samples of each test compound at 10 ppm for salt, umami, meaty, and kokumi (mouthcoating, round and thick) properties, and scored the solutions on a scale ranging from −5 to 5 (with −5 denoting a strong masking effect, and 5 denoting a strong enhancing effect, and 0 representing the intensity of a reference water solution containing 1.26% Chicken base, 0.7% NaCl, and 0.04% MSG, respectively).

As to `C[C@H](CNC(=O)CC[C@H](N)C(=O)O)C(=O)O` [Compound 104], in test [1], the Saltiness is listed as 0.96 and the Umami turned out to be 0.32. Moreover, in test [2], the Meaty was 0.42, the Saltiness amounted to 0.75, the Umami was determined as 0.75 and the Mouth-coating came to 0.75. Moreover, in test [2], the Round came to 0.50 and the Thick worked out at 0.58.
Take `N=C(N)NCCCC(NC(=O)CCC(=O)O)C(=O)O` (stereo not drawn) [Compound 107]: in test [1], the Saltiness turned out to be 0.61 and the Umami turned out to be 0.66.
Turning to `N=C(N)NCCCC(NC(=O)c1ccc(O)cc1)C(=O)O` (stereo not drawn) [Compound 108], in test [1], the Saltiness was determined as 0.49 and the Umami was 0.47.
As to `NC(CCC(=O)NCCO)C(=O)O` (stereo not drawn) [Compound 102], in test [1], the Saltiness is listed as 0.44 and the Umami is reported as 0.46.
As for `NC(CCC(=O)NCCCC(=O)O)C(=O)O` (stereo not drawn) [Compound 103], in test [1], the Saltiness came out at 0.64 and the Umami was found to be 0.73. In addition, in test [2], the Meaty came out at 0.67, the Saltiness is 0.67, the Umami came to 0.83 and the Mouth-coating stood at 1.08. For the same molecule, in test [2], the Round stood at 0.92 and the Thick is given as 0.92.
As to `NC(CCC(=O)NCCc1ccc(O)cc1)C(=O)O` (stereo not drawn) [Compound 106], in test [1], the Saltiness is listed as 0.33 and the Umami is 0.51.
`CC(C)NC(=O)CCC(N)C(=O)O` (stereo not drawn) [Compound 101]: in test [1], the Saltiness is listed as 0.79 and the Umami is recorded as 0.06.
`C[C@@H](CNC(=O)CC[C@H](N)C(=O)O)C(=O)O` [Compound 109]: in test [1], the Saltiness amounted to 0.58 and the Umami is listed as 0.50. For the same molecule, in test [2], the Meaty was 0, the Saltiness is listed as 0.92, the Umami is listed as 0.58 and the Mouth-coating is reported as 0.83. For the same molecule, in test [2], the Round amounted to 0.58 and the Thick amounted to 0.83.
For `COc1ccc(CNC(=O)CCC(N)C(=O)O)cc1` (stereo not drawn) [Compound 105], in test [1], the Saltiness stood at 0.38 and the Umami is listed as 0.76.
